Results: patent US9730448B2, “Tetrazolinone compound and use of same” (Sumitomo Chemical Company, Limited, priority 2013, dated 2017)

Test system: cucumber powdery mildew fungus (Sphaerotheca fuliginea, a QoI-resistant strain, cytochrome b position 143 glycine to alanine)
Test: Test Example 6 and Comparative Test Example: control of cucumber powdery mildew (QoI-resistant strain), foliar spray on cucumber
Format: in vivo
Conditions: 500 ppm water dilution sprayed on cucumber (SAGAMI HANJIRO); inoculated after air-drying; investigated after 8 days in greenhouse

Question: Which “area of lesion spots on the treated plant relative to that on an untreated plant” value does the source give for Cc1cc(-c2cccs2)ccc1OCc1ccccc1-n1nnn(C)c1=O [1-{[2-[2-methyl-4-(thiophen-2-yl)phenoxy]methyl]phenyl}-4-methyl-1,4-dihydrotetrazol-5-one] here?
Answer: Its value is at least 70%.
